Results taken from ChEMBL document CHEMBL4428125, “8-Substituted 1,3-dimethyltetrahydropyrazino[2,1-f]purinediones: Water-soluble adenosine receptor antagonists and monoamine oxidase B inhibitors” (Bioorg Med Chem, 2016).
In brackets after ≈: the same amount, converted by molar mass. Each block holds one compound with its values, some of them ahead of it.

Columns and labels:
Adenosine receptor A1 = biological target: T1, Adenosine receptor A1 (Rattus norvegicus, UniProt P25099); assay: Displacement of [3H]CCPA from A1 receptor in rat brain cortex membranes by liquid scintillation counting method; assay type: cell membranes
T1 sequence (P25099 whole entry): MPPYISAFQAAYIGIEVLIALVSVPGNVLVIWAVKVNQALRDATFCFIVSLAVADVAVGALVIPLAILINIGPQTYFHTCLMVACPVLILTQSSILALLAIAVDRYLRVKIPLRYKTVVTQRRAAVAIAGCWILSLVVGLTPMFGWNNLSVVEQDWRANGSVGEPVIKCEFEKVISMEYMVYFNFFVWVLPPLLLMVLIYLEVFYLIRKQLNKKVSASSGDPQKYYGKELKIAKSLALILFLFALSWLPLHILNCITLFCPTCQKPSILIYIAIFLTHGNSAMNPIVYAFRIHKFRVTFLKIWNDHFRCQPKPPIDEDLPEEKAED

[1] = biological target: T2, Adenosine receptor A1 (Rattus norvegicus) (UniProt P25099); assay: Displacement of [3H]CCPA from A1 receptor in rat brain cortex membranes at 1.5 uM by liquid scintillation counting method; assay type: cell membranes
T2 sequence (whole entry): T1 sequence (P25099 whole entry)

Adenosine receptor A2a = Adenosine receptor A2a (Rattus norvegicus, UniProt P30543); assay: Displacement of [3H]MSX from A2A receptor in rat brain striatum membranes measured after 30 mins by liquid scintillation counting method; assay type: cell membranes
[2] = biological target: Adenosine receptor A2a (Rattus norvegicus) (UniProt P30543); assay: Displacement of [3H]MSX from A2A receptor in rat brain striatum membranes at 1 uM measured after 30 mins by liquid scintillation counting method relative to control; assay type: cell membranes
[3] = biological target: T3, Amine oxidase [flavin-containing] B (Homo sapiens, UniProt P27338); assay: Inhibition of recombinant human MAO-B expressed in baculovirus infected BTI insect cells preincubated for 30 mins followed by addition of p-tyramine as substrate measured over 45 mins by Amplex Red MAO assay
T3 sequence (P27338 whole entry): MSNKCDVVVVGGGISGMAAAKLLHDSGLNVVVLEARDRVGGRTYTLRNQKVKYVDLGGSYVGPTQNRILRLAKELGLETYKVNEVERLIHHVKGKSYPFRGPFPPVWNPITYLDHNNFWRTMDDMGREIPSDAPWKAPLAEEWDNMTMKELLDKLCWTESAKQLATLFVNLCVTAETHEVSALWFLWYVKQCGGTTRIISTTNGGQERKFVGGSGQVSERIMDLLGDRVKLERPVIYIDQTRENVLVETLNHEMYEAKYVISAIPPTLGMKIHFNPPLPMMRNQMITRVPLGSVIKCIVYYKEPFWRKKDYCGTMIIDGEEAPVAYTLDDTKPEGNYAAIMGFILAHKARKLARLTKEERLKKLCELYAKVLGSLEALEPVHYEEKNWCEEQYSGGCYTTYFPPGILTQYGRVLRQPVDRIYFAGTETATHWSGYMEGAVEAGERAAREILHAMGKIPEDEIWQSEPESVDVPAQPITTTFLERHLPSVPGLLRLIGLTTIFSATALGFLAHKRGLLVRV

[4] = biological target: T3, Amine oxidase [flavin-containing] B; assay: Inhibition of recombinant human MAO-B expressed in baculovirus infected BTI insect cells at 10 uM preincubated for 30 mins followed by addition of p-tyramine as substrate measured over 45 mins by Amplex Red MAO assay relative to control; conditions: 0.75 h
Adenosine receptor A2b = biological target: T4, Adenosine receptor A2b (Homo sapiens, UniProt P29275); assay: Displacement of [3H]PSB-603 from human A2B receptor expressed in CHO cell membrane; assay type: cell membranes
T4 sequence (P29275 whole entry): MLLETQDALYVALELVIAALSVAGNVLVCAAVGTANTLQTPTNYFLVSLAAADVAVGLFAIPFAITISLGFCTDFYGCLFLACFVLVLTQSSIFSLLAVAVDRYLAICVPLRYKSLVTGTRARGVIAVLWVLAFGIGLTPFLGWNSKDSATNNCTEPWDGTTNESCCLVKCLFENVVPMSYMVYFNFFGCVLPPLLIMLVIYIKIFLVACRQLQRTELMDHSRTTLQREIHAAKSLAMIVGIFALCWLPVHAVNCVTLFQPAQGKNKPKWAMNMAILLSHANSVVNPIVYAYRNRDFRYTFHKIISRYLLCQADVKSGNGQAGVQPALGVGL

[5] = biological target: T5, Adenosine receptor A2b (Homo sapiens) (UniProt P29275); assay: Displacement of [3H]PSB-603 from human A2B receptor expressed in CHO cell membrane at 1 uM relative to control; assay type: cell membranes
T5 sequence (whole entry): T4 sequence (P29275 whole entry)

Adenosine receptor A3 = biological target: T6, Adenosine receptor A3 (Homo sapiens, UniProt P0DMS8); assay: Displacement of [3H]PSB-11 from human A3 receptor expressed in CHO cell membrane by liquid scintillation counting method relative to control; assay type: cell membranes
T6 sequence (P0DMS8 whole entry): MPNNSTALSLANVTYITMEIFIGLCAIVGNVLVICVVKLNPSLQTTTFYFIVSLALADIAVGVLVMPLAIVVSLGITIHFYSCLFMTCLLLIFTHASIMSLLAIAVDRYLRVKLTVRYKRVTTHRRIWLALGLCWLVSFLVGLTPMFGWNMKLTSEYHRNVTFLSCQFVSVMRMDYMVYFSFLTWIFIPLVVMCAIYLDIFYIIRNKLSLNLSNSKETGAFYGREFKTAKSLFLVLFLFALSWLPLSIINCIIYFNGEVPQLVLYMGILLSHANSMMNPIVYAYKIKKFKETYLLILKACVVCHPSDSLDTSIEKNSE

[6] = biological target: T7, Adenosine receptor A3 (Homo sapiens) (UniProt P0DMS8); assay: Displacement of [3H]PSB-11 from human A3 receptor expressed in CHO cell membrane at 10 uM by liquid scintillation counting method relative to control relative to control; assay type: cell membranes
T7 sequence (whole entry): T6 sequence (P0DMS8 whole entry)

[7] = Thermodynamic solubility of the compound at pH 1; assay type: physicochemical; conditions: buffer, read-out: Therm_solubility
[8] = Thermodynamic solubility of the compound at pH 4; assay type: physicochemical; conditions: buffer, read-out: Therm_solubility
[9] = Thermodynamic solubility of the compound at pH 7.4; assay type: physicochemical; conditions: buffer, read-out: Therm_solubility
[10] = biological target: T8, Amine oxidase [flavin-containing] A (Homo sapiens, UniProt P21397); assay: Inhibition of recombinant human MAO-A expressed in baculovirus infected BTI insect cells preincubated for 30 mins followed by addition of p-tyramine as substrate measured over 45 mins by Amplex Red MAO assay
T8 sequence (P21397 whole entry): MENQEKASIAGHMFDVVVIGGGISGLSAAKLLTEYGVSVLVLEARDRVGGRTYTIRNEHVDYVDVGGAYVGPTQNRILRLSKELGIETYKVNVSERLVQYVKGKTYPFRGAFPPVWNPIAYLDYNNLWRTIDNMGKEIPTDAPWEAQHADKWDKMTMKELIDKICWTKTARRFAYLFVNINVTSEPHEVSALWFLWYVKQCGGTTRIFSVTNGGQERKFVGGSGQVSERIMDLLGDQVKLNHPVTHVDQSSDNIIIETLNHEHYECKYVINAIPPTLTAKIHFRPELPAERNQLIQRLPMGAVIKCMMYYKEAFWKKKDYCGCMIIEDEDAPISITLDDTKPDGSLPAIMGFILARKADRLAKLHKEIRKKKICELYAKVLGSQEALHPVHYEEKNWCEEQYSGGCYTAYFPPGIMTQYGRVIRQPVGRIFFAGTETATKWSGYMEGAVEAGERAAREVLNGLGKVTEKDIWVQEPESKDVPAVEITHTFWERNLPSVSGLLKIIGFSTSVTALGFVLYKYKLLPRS

[11] = biological target: T8, Amine oxidase [flavin-containing] A; assay: Inhibition of recombinant human MAO-A expressed in baculovirus infected BTI insect cells at 10 uM preincubated for 30 mins followed by addition of p-tyramine as substrate measured over 45 mins by Amplex Red MAO assay relative to control; conditions: 0.75 h

Adenosine receptor A2a (Rattus norvegicus), sequence (P30543 whole entry): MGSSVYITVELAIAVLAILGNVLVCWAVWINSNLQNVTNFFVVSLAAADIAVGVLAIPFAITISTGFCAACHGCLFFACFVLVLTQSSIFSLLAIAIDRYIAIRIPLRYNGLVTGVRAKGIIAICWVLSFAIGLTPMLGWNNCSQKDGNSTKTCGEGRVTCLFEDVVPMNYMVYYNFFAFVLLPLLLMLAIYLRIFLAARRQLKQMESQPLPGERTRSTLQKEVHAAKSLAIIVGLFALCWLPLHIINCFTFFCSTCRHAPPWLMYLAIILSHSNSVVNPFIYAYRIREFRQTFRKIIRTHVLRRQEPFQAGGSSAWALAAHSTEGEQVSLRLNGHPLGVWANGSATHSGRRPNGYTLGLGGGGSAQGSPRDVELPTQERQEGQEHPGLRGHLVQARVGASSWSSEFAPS
Adenosine receptor A2a, sequence (P30543 whole entry): as above

Compound: Cc1cc(CN2CCn3c(nc4c3c(=O)n(C)c(=O)n4C)C2)n(C)n1
Ki (Adenosine receptor A1): > 1.5 µM
Activity [1]: 15%
Ki (Adenosine receptor A2a): > 1 µM
Activity [2]: 14%
IC50 [3]: > 10 µM
inhibition at 10 µM [4]: -17%
Ki (Adenosine receptor A2b): > 1 µM
Activity [5]: 8%
Ki (Adenosine receptor A3): > 10 µM
Activity [6]: 5%
solubility thermodynamic [9]: 0.7 mg/mL (≈ 2040 µM)

Compound: Cn1c(=O)c2c(nc3n2CCN(CCc2ccc(O)cc2)C3)n(C)c1=O
Ki (Adenosine receptor A1): > 1.5 µM
Activity [1]: 11%
Ki (Adenosine receptor A2a): 6.04 µM
IC50 [3]: > 10 µM
inhibition at 10 µM [4]: 15%
Ki (Adenosine receptor A2b): > 1 µM
Activity [5]: 8%
Ki (Adenosine receptor A3): > 10 µM
Activity [6]: 35%
solubility thermodynamic [9]: 0.001 mg/mL (≈ 2.81 µM)

Compound: Cn1c(=O)c2c(nc3n2CCN(CC(O)c2ccccc2)C3)n(C)c1=O (configuration not stated)
Ki (Adenosine receptor A1): > 1.5 µM
Activity [1]: 7%
Ki (Adenosine receptor A2a): 7.11 µM
IC50 [3]: > 10 µM
inhibition at 10 µM [4]: 3%
Ki (Adenosine receptor A2b): > 1 µM
Activity [5]: 20%
Ki (Adenosine receptor A3): > 10 µM
Activity [6]: 11%
solubility thermodynamic [7]: 1.1 mg/mL (≈ 3100 µM)
solubility thermodynamic [8]: 0.07 mg/mL (≈ 197 µM)
solubility thermodynamic [9]: 0.09 mg/mL (≈ 253 µM)

Compound: Cc1sc(-c2ccc(C(F)(F)F)cc2)nc1CN1CCn2c(nc3c2c(=O)n(C)c(=O)n3C)C1
Ki (Adenosine receptor A1): > 1.5 µM
Activity [1]: 25%
Ki (Adenosine receptor A2a): > 1 µM
Activity [2]: 19%
IC50 [3]: 10 µM
inhibition at 10 µM [4]: 67%
Ki (Adenosine receptor A2b): > 1 µM
Activity [5]: 30%
Ki (Adenosine receptor A3): > 10 µM
Activity [6]: 40%
solubility thermodynamic [9]: 0.001 mg/mL (≈ 2.04 µM)

Compound: Cn1c(=O)c2c(nc3n2CCN(CCc2ccc(Cl)cc2)C3)n(C)c1=O
Ki (Adenosine receptor A1): > 1.5 µM
Activity [1]: 22%
Ki (Adenosine receptor A2a): 4.96 µM
IC50 [3]: > 10 µM
inhibition at 10 µM [4]: 36%
Ki (Adenosine receptor A2b): > 1 µM
Activity [5]: 4%
Ki (Adenosine receptor A3): > 10 µM
Activity [6]: 37%
solubility thermodynamic [9]: 0.001 mg/mL (≈ 2.67 µM)

Compound: Cn1c(=O)c2c(nc3n2CCN(CC#Cc2cccc(Cl)c2)C3)n(C)c1=O
Ki (Adenosine receptor A1): > 1.5 µM
Activity [1]: 17%
Ki (Adenosine receptor A2a): > 1 µM
Activity [2]: 42%
IC50 [10]: > 10 µM
inhibition at 10 µM [11]: 19%
IC50 [3]: > 10 µM
inhibition at 10 µM [4]: 5%
Ki (Adenosine receptor A2b): > 1 µM
Activity [5]: 7%
Ki (Adenosine receptor A3): > 10 µM
Activity [6]: 20%

The remaining lines, values ahead:

Ki (Adenosine receptor A1): > 1.5 µM
Activity [1]: 7%
Ki (Adenosine receptor A2a): > 1 µM
Activity [2]: 5%
IC50 [3]: > 10 µM
inhibition at 10 µM [4]: 2%
Ki (Adenosine receptor A2b): > 1 µM
Activity [5]: 17%
Ki (Adenosine receptor A3): > 10 µM
Activity [6]: 10%
solubility thermodynamic [7]: > 1.5 mg/mL
solubility thermodynamic [8]: > 1.5 mg/mL
solubility thermodynamic [9]: 0.3 mg/mL (≈ 734 µM)
Compound: Cn1c(=O)c2c(nc3n2CCN(C2CCN(Cc4ccccc4)CC2)C3)n(C)c1=O

Ki (Adenosine receptor A1): > 1.5 µM
Activity [1]: 5%
Ki (Adenosine receptor A2a): > 1 µM
Activity [2]: 23%
IC50 [3]: > 10 µM
inhibition at 10 µM [4]: 24%
Ki (Adenosine receptor A2b): > 1 µM
Activity [5]: 12%
Ki (Adenosine receptor A3): > 10 µM
Activity [6]: 41%
solubility thermodynamic [7]: > 1.5 mg/mL
solubility thermodynamic [8]: < 0.0005 mg/mL
solubility thermodynamic [9]: < 0.0005 mg/mL
Compound: Cn1c(=O)c2c(nc3n2CCN(CCOc2ccccc2F)C3)n(C)c1=O

Ki (Adenosine receptor A1): > 1.5 µM
Activity [1]: 8%
Ki (Adenosine receptor A2a): > 1 µM
Activity [2]: 31%
IC50 [3]: > 10 µM
inhibition at 10 µM [4]: 22%
Ki (Adenosine receptor A2b): > 1 µM
Activity [5]: 11%
Ki (Adenosine receptor A3): > 10 µM
Activity [6]: 42%
solubility thermodynamic [7]: > 1.5 mg/mL
solubility thermodynamic [8]: < 0.0005 mg/mL
solubility thermodynamic [9]: < 0.0005 mg/mL
Compound: Cn1c(=O)c2c(nc3n2CCN(CCOc2cccc(F)c2)C3)n(C)c1=O

Ki (Adenosine receptor A1): > 1.5 µM
Activity [1]: 10%
Ki (Adenosine receptor A2a): > 1 µM
Activity [2]: 27%
IC50 [3]: 0.97 µM
Ki (Adenosine receptor A2b): > 1 µM
Activity [5]: 24%
Ki (Adenosine receptor A3): > 10 µM
Activity [6]: 35%
solubility thermodynamic [7]: > 1.5 mg/mL
solubility thermodynamic [8]: < 0.0005 mg/mL
solubility thermodynamic [9]: < 0.0005 mg/mL
Compound: Cn1c(=O)c2c(nc3n2CCN(CCc2ccccc2Br)C3)n(C)c1=O
